Source: publication PMC6270026, “Antibacterial and Herbicidal Activity of Ring-Substituted 2-Hydroxynaphthalene-1-carboxanilides” (Molecules, 2013)
Values after ≈ are worked out from the molar mass of the structure shown.

How the values were obtained:
[1] = system: human monocytic leukemia THP-1 cells; experiment: In vitro cytotoxicity assay (LDH); type: cell-based; settings: treatment with 20 µmol/L, 24 h
Protocol: Human monocytic leukemia THP-1 cells were obtained from the European Collection of Cell Cultures (ECACC, Salisbury, UK; Methods of characterization: DNA Fingerprinting (Multilocus probes) and isoenzyme analysis). These cells were routinely cultured in RPMI 1640 (Lonza, Verviers, Belgium) medium supplemented with 10% fetal bovine serum (FBS, Sigma-Aldrich), 2% L-glutamine, 1% penicillin and streptomycin (Lonza, Verviers, Belgium) at 37 °C with 5% CO2. Cells were passaged at approximately 1 week intervals. Cells were routinely tested for the absence of mycoplasma (Hoechst 33258 staining method). The tested compounds were dissolved in DMSO (Sigma-Aldrich) and added in five increasing concentrations to the cell suspension in the culture medium. The maximum concentration of DMSO in the assays never exceeded 0.1%. Subsequently, the cells were incubated for 24 h at 37 °C with 5% CO2 to various compound concentrations ranging from 0.37 to 20 μmol/L in RPMI 1640 medium. Cell toxicity was determined using a Cytotoxicity Detection Kit^PLUS Lactate dehydrogenase (LDH) assay kit (Roche Diagnostics, Mannheim, Germany) according to the manufacturer’s instructions, as described previously. […] All data were evaluated using GraphPad Prism 5.00 software (GraphPad Software, San Diego, CA, USA).

[2] = Lipophilicity determination by RP-HPLC (capacity factor log k); type: physicochemical; settings: isocratic, MeOH 60%/H2O 40%, C18
Protocol: A HPLC system Agilent 1200 equipped with DAD detector (Agilent, Santa Clara, CA, USA) was used. A chromatographic column Symmetry® C18 5 μm, 4.6 × 250 mm, Part No. WAT054275, (Waters Corp., Milford, MA, USA) was used. The HPLC separation process was monitored and evaluated by EZChrom Elite software ver. 3.3.2 (Agilent). Isocratic elution by a mixture of MeOH p.a. (60%) and H2O-HPLC Mili-Q grade (40%) as a mobile phase was used. The total flow of the column was 1.0 mL/min, injection 20 μL, column temperature 40 °C and sample temperature 10 °C. The detection wavelength 210 nm was chosen. The KI methanolic solution was used for the dead time (tD) determination. Retention times (tR) were measured in minutes. The capacity factors k were calculated according to formula k = (tR − tD)/tD, where tR is the retention time of the solute, whereas tD denotes the dead time obtained using an unretained analyte. Log k, calculated from the capacity factor k, is used as the lipophilicity index converted to log P scale.

[3] = system: Mycobacterium marinum CAMP 5644; experiment: In vitro antimycobacterial evaluation (broth dilution MIC); type: cell-based; settings: Mycobacterium marinum, CAMP5644, 504 h, M. marinum CAMP 5644, 21 days, 28 °C

| SMILES | lethal effect on THP-1 cells [1] | log k [2] | MIC [3] [µM] |
| --- | --- | --- | --- |
| O=C(Nc1ccccc1Cl)c1c(O)ccc2ccccc12 [Compound 5a, N-(2-chlorophenyl)-2-hydroxynaphthalene-1-carboxamide] | did not lead to significant lethal effects | 0.8984 | 107 (≈ 31.9 µg/mL) |
| O=C(Nc1ccccc1C(F)(F)F)c1c(O)ccc2ccccc12 [Compound 7a, 2-Hydroxy-N-(2-trifluoromethylphenyl)naphthalene-1-carboxamide] | did not lead to significant lethal effects | 0.8353 | 96.6 (≈ 32 µg/mL) |
| O=C(Nc1cccc(C(F)(F)F)c1)c1c(O)ccc2ccccc12 [Compound 7b, 2-Hydroxy-N-(3-trifluoromethylphenyl)naphthalene-1-carboxamide] | did not lead to significant lethal effects | 0.9411 | > 748 |
